Columns and labels:
[1] = test system: CEM-SS; experiment: Antiviral activity against HIV-1 infected HXB2/CEM-SS cell lines.; assay type: functional; conditions: Homo sapiens
[2] = molecular target: Human immunodeficiency virus type 1 protease (Human immunodeficiency virus 1, UniProt Q72874); experiment: In vitro inhibition of HIV-1 protease.
[3] = Plasma half-life following oral administration in Fisher rats; assay type: ADME, organism-based; conditions: rat
[4] = Bioavailability in rat (Fisher) (fasted); assay type: ADME, organism-based; conditions: in vivo
[5] = organism: Rattus norvegicus; experiment: (§1) Compound was tested for the duration that the plasma drug concentrations remained above the IC95; assay type: ADME, organism-based; conditions: in vivo
[6] = Cmax value was determined between 15 and 30 minutes post administration in fisher rats; value ranges from 200-500; assay type: ADME, organism-based; conditions: rat, in vivo
[7] = Peak plasma level between 0.5 and 1.0 hour in Dawley rats; value ranges from 1021-2551; assay type: ADME, organism-based; conditions: Sprague-Dawley, rat, read-out: Plasma level
[8] = as §1; assay type: ADME, cell-free
[9] = Plasma half-life following oral administration in fisher rats; assay type: ADME, organism-based; conditions: rat
[10] = Bioavailability in fasted fisher rats; assay type: ADME, organism-based; conditions: rat, in vivo

| SMILES | IC95 [1] | IC50 [2] | other results |
| --- | --- | --- | --- |
| CC(C)[C@H]1SCC[C@H]1OC(=O)N[C@@H](Cc1ccccc1)[C@H](O)CN1C[C@H]2CCS[C@H]2C[C@H]1C(=O)NC(C)(C)C | 85 nM | 0.26 nM | – |
| C[C@@H]1[C@H](OC(=O)N[C@@H](Cc2ccccc2)[C@H](O)CN2C[C@H]3CCCC[C@H]3C[C@H]2C(=O)NC(C)(C)C)CCS1(=O)=O | 171 nM | 10 nM | – |
| C[C@H]1[C@@H](OC(=O)N[C@@H](CSc2ccccc2)[C@H](O)CN2C[C@H]3CCS[C@H]3C[C@H]2C(=O)NC(C)(C)C)CCS1(=O)=O | 31 nM | 0.4 nM | half-life [3]: 1.55 h; bioavailability [4]: 7.4%; Duration [5]: 6 h; Cmax [6]: 200 ng/mL; Cmax [7]: 1020 ng/mL |
| CC(C)(C)NC(=O)[C@@H]1C[C@@H]2SCC[C@@H]2CN1C[C@@H](O)[C@H](CSc1ccccc1)NC(=O)O[C@@H]1CCS(=O)(=O)C1 | 59 nM | 2 nM | – |
| CC(C)(C)NC(=O)[C@@H]1C[C@@H]2CCCC[C@@H]2CN1C[C@@H](O)[C@H](Cc1ccccc1)NC(=O)[C@H](CC(N)=O)NC(=O)c1ccc2ccccc2n1 | 21 nM | – | – |
| CC(C)[C@@H]1SCC[C@@H]1OC(=O)N[C@@H](Cc1ccccc1)[C@H](O)CN1C[C@H]2CCS[C@H]2C[C@H]1C(=O)NC(C)(C)C | 686 nM | 2.6 nM | – |
| C[C@H]1OCC[C@H]1OC(=O)N[C@@H](CSc1ccccc1)[C@H](O)CN1C[C@H]2CCS[C@H]2C[C@H]1C(=O)NC(C)(C)C | 2560 nM | 3 nM | – |
| CC(C)[C@@H]1[C@H](OC(=O)N[C@@H](Cc2ccccc2)[C@H](O)CN2C[C@H]3CCCC[C@H]3C[C@H]2C(=O)NC(C)(C)C)CCS1(=O)=O | 85 nM | 4.3 nM | – |
| CC(C)[C@H]1[C@@H](OC(=O)N[C@@H](CSc2ccccc2)[C@H](O)CN2C[C@H]3CCS[C@H]3C[C@H]2C(=O)NC(C)(C)C)CCS1(=O)=O | 89 nM | – | – |
| C[C@@H]1[C@H](OC(=O)N[C@@H](CSc2ccccc2)[C@H](O)CN2C[C@H]3CCS[C@H]3C[C@H]2C(=O)NC(C)(C)C)CCS1(=O)=O | 19 nM | 0.75 nM | Cmax [6]: 200 ng/mL; Duration [8]: 5 h; Cmax [7]: 1020 ng/mL; half-life [9]: 2.53 h; bioavailability [10]: 6.3% |
| C[C@H]1[C@H](OC(=O)N[C@@H](CSc2ccccc2)[C@H](O)CN2C[C@H]3CCS[C@H]3C[C@H]2C(=O)NC(C)(C)C)CCS1(=O)=O | 44 nM | 1.4 nM | – |
| CC(C)(C)NC(=O)[C@@H]1C[C@@H]2SCC[C@@H]2CN1C[C@@H](O)[C@H](CSc1ccccc1)NC(=O)O[C@H]1CCS(=O)(=O)C1 | 59 nM | 1.7 nM | – |
| CC(C)[C@H]1[C@@H](OC(=O)N[C@@H](Cc2ccccc2)[C@H](O)CN2C[C@H]3CCCC[C@H]3C[C@H]2C(=O)NC(C)(C)C)CCS1(=O)=O | 273 nM | 8.1 nM | – |
| C[C@@H]1[C@@H](OC(=O)N[C@@H](CSc2ccccc2)[C@H](O)CN2C[C@H]3CCS[C@H]3C[C@H]2C(=O)NC(C)(C)C)CCS1(=O)=O | 45 nM | 5.2 nM | – |
| CC(C)[C@H]1[C@@H](OC(=O)N[C@@H](Cc2ccccc2)[C@H](O)CN2C[C@H]3CCS[C@H]3C[C@H]2C(=O)NC(C)(C)C)CCS1(=O)=O | 77 nM | 2.6 nM | – |
| C[C@@H]1OCC[C@@H]1OC(=O)N[C@@H](CSc1ccccc1)[C@H](O)CN1C[C@H]2CCS[C@H]2C[C@H]1C(=O)NC(C)(C)C | 162 nM | 0.28 nM | – |
| CC(C)[C@@H]1[C@H](OC(=O)N[C@@H](Cc2ccccc2)[C@H](O)CN2C[C@H]3CCS[C@H]3C[C@H]2C(=O)NC(C)(C)C)CCS1(=O)=O | 38 nM | 1.3 nM | – |
| CC(C)[C@@H]1[C@H](OC(=O)N[C@@H](CSc2ccccc2)[C@H](O)CN2C[C@H]3CCS[C@H]3C[C@H]2C(=O)NC(C)(C)C)CCS1(=O)=O | 9 nM | – | half-life [3]: 1.4 h; bioavailability [4]: 3.5%; Duration [5]: 3 h; Cmax [6]: 200 ng/mL; Cmax [7]: 1020 ng/mL |
